{"source": "patent US20250382556A1", "about": "“MODULATION OF THE BRANCHED-CHAIN METABOLITE CONTENT OF FRUITS AND VEGETABLES” (BOARD OF TRUSTEES OF MICHIGAN STATE UNIVERSITY, priority 2024, published 2025)", "tested_on": "apple fruit peel", "experiment": "Complementation of inhibitor-treated apple peel with branched-chain precursors", "design": "species or system Malus x domestica Borkh.", "experimental": "α-Ketoacids (2-oxo acids) were fed to ‘Empire’ and ‘Jonagold’ fruit by preparing vials of excised peel tissue discs in 22-mL glass vials using 20 μL of treatment solution on the prepared paper-peel disc units. Treatment solution contained 20 mM methanol, 0.1% Tween 20, 20 mM of α-keto-β-methylvalerate (3-methyl-2-oxopentanoate), α-ketoisovalerate (3-methyl-2-oxobutanoate), or α-ketoisocaproate (4-methyl-2-oxopentanoate), and when appropriate, 1 mM rimsulfuron.\n‘Red Delicious’ apple fruit held in refrigerated air for 5 months (see above) plus 1 day at 22° C. and at an advanced ripeness stage (‘ripe’) were treated with rimsulfuron (1 mM) with 0.2% Tween 20 on day 0 of the study and for the next three consecutive days as above described. The fruit were evaluated daily for volatile emissions (see below) for eight days. On days 0, 2, 4, and 7, representative treated and untreated fruit were selected for tissue collection for metabolite analysis (see below). On day 7, samples of fruit peel were fed, as described above, with water or 20 mM isoleucine or α-keto-β-methylvalerate.\nHeadspace volatiles from small tissue samples incubated in 22 mL vials were adsorbed for 30 s using a solid-phase micro extraction (SPME) fiber (65 μm PDMS-DVB; Supelco Analytical). […]", "data": [{"smiles": "CCS(=O)(=O)c1cccnc1S(=O)(=O)NC(=O)Nc1nc(OC)cc(OC)n1", "note": "[rimsulfuron, N-((4,6-dimethoxypyrimidin-2-yl)aminocarbonyl)-3-(ethylsulfonyl)-2-pyridinesulfonamide]", "values": [{"measurement": "ester production after feeding isoleucine or α-keto-β-methylvalerate to inhibitor-treated peels", "setting": "ripe Red Delicious, 20 mM precursor on day 7", "value": "recovery of anteiso-branched-chain esters"}, {"measurement": "2-methylbutyl and 2-methylbutanoate esters after exogenous feeding of α-keto-β-methylvalerate to inhibitor-treated fruit", "setting": "ripening Jonagold and Empire, 20 mM α-ketoacid", "value": "at least a partial rescue"}]}]}
